In patent US20250051321A1, “TRICYCLIC DERIVATIVE AND PREPARATION METHOD THEREFOR AND APPLICATION THEREOF” (SHANGHAI JEMINCARE PHARMACEUTICAL CO., LTD., priority 2021, published 2025):
Like-named read-outs stand apart in the source and are kept apart here.

Assays:
ATX = ATX (Homo sapiens (Human), UniProt Q13822); assay: ATX enzyme inhibition assay (Amplex UltraRed/choline oxidase/HRP, 16:0 Lyso PC substrate); assay type: biochemical
Summary of the method: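 ATX (2× stock […]) preincubated with compound for 10 min at room temperature in assay buffer at pH 8.5 or 7.5. Reaction started with 16:0 Lyso PC, choline oxidase, HRP and Amplex UltraRed (2.5× working stock); fluorescence read kinetically (ex 550/em 590 nm) for 60 min.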

[1] = test system: plasma LPA 18:1 and LPA 18:2; assay: Human plasma ex vivo assay (LPA 18:1 / 18:2 by LC-MS/MS); assay type: biochemical; settings: 37° C., 2 hours
Summary of the method: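 Human plasma incubated 2 h at 37° C with compound (8 points, 1:3 dilution, top 10 μM, 0.1% DMSO), then quenched with 0.1% FA containing LPA 17:0 internal standard.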

[2] = Pharmacokinetic test in mice; assay type: in vivo, ICR mice; settings: male, ICR, mouse, plasma
Procedure: Dosage preparation: The dosing solution was prepared on the day of dosing. 2 mg of compound was weighed and dissolved in 5% DMSO+10% solutol+85% saline to prepare a solution for intravenous administration at a concentration of 0.2 mg/mL. 2 mg of compound was weighed and dissolved in 25% PEG 200+75% (0.5% MC) to obtain a solution for oral administration at a concentration of 1 mg/mL.
Six healthy male naïve ICR mice, weighing 25 to 30 g, were divided into two groups (intravenous and oral groups) with three in each group, and administered in a single dose. After 3 days of acclimatization, the mice were fasted overnight (10 to 12 hours) the night before the experiment, but had free access to water during the experiment, and the diet was resumed 4 hours after administration. After intravenous and oral administration, the timer was started. Blood was collected via the orbital venous plexus at the scheduled time points (IV&PO: 0.083, 0.25, 0.5, 1, 2, 4, 6, 8, and 24 hours). 40 μL of whole blood was collected at each point and added to a 1.5 mL EP tube containing sodium heparin. The collected whole blood was vibrated twice on a vortex mixer, mixed well, placed on wet ice, and centrifuged at 8000 rpm for 5 minutes at 4° C. within 1 hour. The supernatant plasma was stored in a −80° C. freezer until processing for analysis.

[3] = assay buffer pH 7.5, read-out: IC50 (nM) pH 7.5
[4] = assay buffer pH 8.5, read-out: IC50 (nM) pH 8.5
[5] = LPA 18:1, read-out: Human plasma ex vivo assay IC50 (18:1 LPA)
[6] = LPA 18:2, read-out: Human plasma ex vivo assay IC50 (18:2 LPA)

| Structure (SMILES) | IC50 (ATX; [3]) [nM] | IC50 (ATX; [4]) [nM] | IC50 [1, 5] [nM] | IC50 [1, 6] [nM] | also measured |
| --- | --- | --- | --- | --- | --- |
| CN(c1nc(-c2ccc(F)cc2)c(C#N)s1)c1c2c(nc3ccc(N4CC5(CN(C(=O)[C@H]6CCOC6)C5)C4)nc13)CCO2 [Example C10] | 33.6 | 18.6 | 147 | 134 |  |
| CN(c1nc(-c2ccc(F)cc2)c(C#N)s1)c1c2c(nc3ccc(N4CCN(CC(=O)N5CC(O)C5)CC4)cc13)CCC2 [Example A1] | 138 | 27.7 | 183 | 196 |  |
| C[C@H]1CN(c2cc(F)c3nc4c(c(N(C)c5nc(-c6ccc(F)cc6)c(C#N)s5)c3c2)CCC4O)CCN1CC(=O)N1CC(O)C1 (stereo partly shown) [Example E8] |  | 15.4 | 175 | 160 |  |
| CN(c1nc(-c2ccc(F)cc2)c(C#N)s1)c1c2c(nc3c(F)cc(N4CCN(S(C)(=O)=O)[C@@H](CO)C4)cc13)CCC2 [Example B4] | 611 | 66.5 | 219 | 253 |  |
| Cc1cc(N2CC3(CN(C(=O)C(C)(C)O)C3)C2)nc2c(N(C)c3nc(-c4ccc(F)cc4)c(C#N)s3)c3c(nc12)CC3 [Example C29] |  |  | 251 | 220 | AUC ([2]; 1 mg/kg, IV - 1 mpk): 12600 ng·h/mL; C0 ([2]; 1 mg/kg, IV - 1 mpk): 2600 ng/mL; half-life ([2]; 1 mg/kg, IV - 1 mpk): 2.73 h; clearance ([2]; 1 mg/kg, IV - 1 mpk, read-out: CL (mL/min/kg, IV)): 1.39 mL/min/kg; AUC ([2]; 5 mg/kg, PO - 5 mpk): 36500 ng·h/mL; Cmax ([2]; 5 mg/kg, PO - 5 mpk): 3640 ng/mL; Tmax ([2]; 5 mg/kg, PO - 5 mpk): 0.67 h; half-life ([2]; 5 mg/kg, PO - 5 mpk): 1.89 h; bioavailability ([2]; 5 mg/kg, PO - 5 mpk vs IV - 1 mpk): 57.7% |
| CN(c1nc(-c2ccc(F)cc2)c(C#N)s1)c1c2c(nc3cc(F)c(N4CCN(CC(=O)N5CC(O)C5)CC4)cc13)CCC2 [Example A8] | 883 | 64 | 248 | 271 |  |
| CN(c1nc(-c2ccc(F)cc2)c(C#N)s1)c1c2c(nc3c(F)cc(N4CCN(CC(=O)N5CC(C)(O)C5)CC4)cc13)C(O)CC2 (stereo not shown) [Example E10] |  | 16.2 | 139 | 270 |  |
| CN(c1nc(-c2ccc(F)cc2)c(C#N)s1)c1c2c(nc3c(F)cc(N4CC5(CCN(C(=O)[C@@H]6CCOC6)CC5)C4)cc13)CCC2 [Example C9] | 78.5 | 23 | 216 | 234 |  |
| Cc1cc(N2CC3(CN(C(=O)C(C)(C)O)C3)C2)nc2c(N(C)c3nc(-c4ccc(F)cc4)c(C#N)s3)c3c(nc12)C(C)(O)CC3 (stereo not shown) [Example E25] |  |  | 379 | 457 | AUC ([2]; 5 mg/kg, PO - 5 mpk): 23900 ng·h/mL; Cmax ([2]; 5 mg/kg, PO - 5 mpk): 2830 ng/mL; Tmax ([2]; 5 mg/kg, PO - 5 mpk): 0.58 h; half-life ([2]; 5 mg/kg, PO - 5 mpk): 2.66 h |
| CN1CC[C@H](C(=O)N2CC3(C2)CN(c2cc(F)c4nc5c(c(N(C)c6nc(-c7ccc(F)cc7)c(C#N)s6)c4c2)CCC5O)C3)C1 (stereo partly shown) [Example E18] |  | 21.4 | 250 | 260 |  |
| CN(c1nc(-c2ccc(F)cc2)c(C#N)s1)c1c2c(nc3ccc(N4CCN(CC(=O)N5CC(O)C5)CC4)cc13)CC2 [Example A7] | 85.1 | 22.2 | 74.2 | 72.7 |  |
| CN(c1nc(-c2ccc(F)cc2)c(C#N)s1)c1c2c(nc3c(F)cc(N4CC5(CN(CC(=O)N6CC(O)C6)C5)C4)cc13)CCC2 [Example A9] | 699 | 86.8 | 351 | 323 |  |
| C[C@@H]1CN(c2cc(F)c3nc4c(c(N(C)c5nc(-c6ccc(F)cc6)c(C#N)s5)c3c2)CCC4O)CCN1CC(=O)N1CC(O)C1 (stereo partly shown) [Example E9] |  | 19.6 | 160 | 152 |  |
| CN(c1nc(-c2ccc(F)cc2)c(C#N)s1)c1c2c(nc3ccc(N4CCN(CC(=O)N5CC(O)C5)CC4)cc13)COC2 [Example A2] | 624 | 96.7 | 85 | 73.5 |  |
